In PMC9652379, “Safety evaluations of a synthetic antimicrobial peptide administered intravenously in rats and dogs” (Scientific Reports, 2022):
Positions of bridges follow the written chain, without caps; N, C: chain ends. Non-standard residues stand in square brackets, D forms with d. Residues, ends and D or L forms follow the SMILES beside them. Chains are numbered I, II in the order given. βAla = NCCC(=O)O

Experiments:
[1] = test system: Sprague Dawley rats; assay: Dose range finding in rats: clinical signs, body weight, survival; format: in vivo, rat
Procedure: The purpose of this study was to determine the DRF of SET-M33 peptide when administered by intravenous bolus to Sprague Dawley rats. In order to identify a starting point for DRF, in Phase I of this study the peptide was administered once daily for 3 days at a constant dose of 20 mg/kg/day to six animals (three males and three females). […] No clinical signs were recorded in any animal 20–60 min after administration. Body weight of all animals in Phase I remained constant or decreased slightly during treatment.
Phase II, where 10 animals/group (five males and five females) were used, included a control group and two dose groups (10 mg/kg/day and 20 mg/kg/day), that were injected once daily for seven days. […] At 20 mg/kg/day, additional clinical signs, including decreased activity, irregular and/or slow breathing, piloerection, partially closed eyelids, abnormal uncoordinated gait, reduced body tone and hunched posture, were observed during the 7 days. The mean body weight of males treated with 10 and 20 mg/kg/day declined slightly (6% and 5% less than control group, respectively).
Sprague Dawley rats were used for the toxicity studies. The animals were supplied by Envigo RMS S.L. All animals were 6–8 weeks old at the start of treatment and were allocated randomly to the treatment groups. […]
A viability/mortality check was recorded at least twice daily. […]

[2] = in vivo; conditions: dog
Procedure: Concentrations of SET-M33 in dog plasma samples and the main toxicokinetic parameters were determined. The exposure parameters (AUCt and Cmax) were compared to evaluate dose-dependency, accumulation ratio and sex-related differences. […] Mean SET-M33 plasma levels increased in parallel in males and females. Mean time to maximum SET-M33 concentration (tmax) was after the end of infusion for both periods (days 1 and 7) and sexes, i.e. 30 min post-dose, coherently with intravenous administration. On day 1 and 7, mean AUCt and Cmax values for the low vs. high dose were close to the theoretical ratio of 2.
Blood samples were taken by direct venepuncture of the jugular vein on days 1 and 7 to determine plasma levels of SET-M33. Sampling times were as follows: Day 1: at 0, 5, 15, 30, 60 and 180 min. Day 7: at 0, 5, 15, 30, 60, 180 min and 24 h after administration. Control animals were only bled once on days 1 and 7 of treatment, 1 h after administration. Blood samples were collected into lithium heparin test tubes and kept in an ice bath until centrifuging (1600 g for 10 min at 2–8 °C). The plasma obtained from each sample was transferred to a fresh polypropylenes test tubes, immediately frozen in dry ice and stored at − 20 °C ± 5.

[3] = test system: beagle dogs; assay: Dose range finding in dogs: clinical signs, body weight, survival; format: in vivo, dog
Procedure: The purpose of this study was to conduct DRF for SET-M33 administered by short intravenous infusion (30 min) to beagle dogs at 4.0 and 8.0 mg/kg/day (7-day treatment period). Two animals served as control group (one male, one female), and four animals were assigned to treated groups (two males, two females). The doses were determined by a preliminary study not reported here.
Naïve beagle dogs were used for the toxicity studies. The animals were supplied by Marshall US. They were 9–10 months old at the start of treatment with a body-weight range of 9.1–10 kg for the DRF study. They were 6–7 months old at the start of treatment with a body-weight range of 6.6–8.6 kg for males and 5.1–6.5 kg for females for the 4-week toxicity study. The method of administration was an intravenous short infusion with an infusion pump, alternately either into the cephalic or saphenous veins using sterile disposable cannulas and syringes. The volume of the dose of SET-M33 and control in two studies was 2, 5 and 5 mL/Kg body weight, respectively.
Viability/mortality were recorded at least twice daily. […] Injection sites were examined daily during dosing. For clinical investigation, blood obtained via jugular venepuncture from anaesthetized dogs was used to analyse blood, coagulation and biochemical parameters.

[4] = test system: Sprague Dawley rats; conditions: rat, in vivo, iv, 15 mg/kg/day
Procedure: Necroscopy and histopathological examinations were performed at the end of treatment and at the end of the recovery period. Macroscopic changes were recorded in the kidneys (pale coloration and a reddened medullary area in almost all males and females from groups on 9 and 15 mg/kg/day) and bladder (distended in a few males of all treated groups). These findings were also recorded at the end of the recovery period affecting all animals dose at 15 mg/kg/day (pale coloration of the kidneys) or one male (distended urinary bladder). […] At the end of the recovery period the mean weight of the spleen (both sexes) and the mean weight of the kidneys and ovaries (females) from animals treated at 15 mg/kg/day were still higher with respect to control group. […] For 15 mg/kg/day group, the changes observed in the kidneys, bone marrow, uterine cervix and vagina were not reversible (see Supplementary Material for images and number of animals affected by these irreversible abnormalities), while the rest of the findings were fully (femorotibial growth plate and duodenum) or partially recovered (heart, ovaries and mammary glands) after 2 weeks of recovery period.
All animals underwent necropsy. Descriptions of all macroscopic abnormalities were recorded. […]

SMILES: CC[C@H](C)[C@H](NC(=O)[C@H](CCCCN)NC(=O)[C@@H](N)CCCCN)C(=O)N[C@@H](CCCNC(=N)N)C(=O)N[C@H](C(=O)N[C@@H](CCCNC(=N)N)C(=O)N[C@@H](CC(C)C)C(=O)N[C@@H](CO)C(=O)N[C@@H](C)C(=O)NCCCC[C@H](NC(=O)[C@H](C)NC(=O)[C@H](CO)NC(=O)[C@H](CC(C)C)NC(=O)[C@H](CCCNC(=N)N)NC(=O)[C@@H](NC(=O)[C@H](CCCNC(=N)N)NC(=O)[C@@H](NC(=O)[C@H](CCCCN)NC(=O)[C@@H](N)CCCCN)[C@@H](C)CC)C(C)C)C(=O)NCCCC[C@H](NC(=O)[C@H](CCCCNC(=O)[C@H](C)NC(=O)[C@H](CO)NC(=O)[C@H](CC(C)C)NC(=O)[C@H](CCCNC(=N)N)NC(=O)[C@@H](NC(=O)[C@H](CCCNC(=N)N)NC(=O)[C@@H](NC(=O)[C@H](CCCCN)NC(=O)[C@@H](N)CCCCN)[C@@H](C)CC)C(C)C)NC(=O)[C@H](C)NC(=O)[C@H](CO)NC(=O)[C@H](CC(C)C)NC(=O)[C@H](CCCNC(=N)N)NC(=O)[C@@H](NC(=O)[C@H](CCCNC(=N)N)NC(=O)[C@@H](NC(=O)[C@H](CCCCN)NC(=O)[C@@H](N)CCCCN)[C@@H](C)CC)C(C)C)C(=O)NCCC(=O)O)C(C)C [SET-M33] (I: H-KKIRVRLSAKK[βAla]-OH / II: H-KKIRVRLSAK / III: H-KKIRVRLSA / IV: H-KKIRVRLSA; amide I:10-IV:C, I:11-II:C, II:10-III:C (inferred); N-terminus and C-terminus assumed)
- female body weight ([1]; female rats, 10 and 20 mg/kg/day iv, 7 days (Phase II)): unaffected by treatment
- survival ([1]; rats, Phase I 20 mg/kg/day 3 days and Phase II 10 and 20 mg/kg/day 7 days, iv bolus): All animals survived both phases
- tmax ([2]; both sexes, beagle, iv): 30 min
- quantifiable plasma concentrations until, after the start of infusion ([2]; 8 mg/kg/day): up to 24.5 h
- survival ([3]; dogs, 4.0 and 8.0 mg/kg/day 30-min iv infusion, 7 days): All animals survived the scheduled period
- loss of body weight with respect to day 1 ([3]; one dog, 8 mg/kg/day 30-min iv infusion, end of 7-day treatment): 9.4%
- cervical and vaginal epithelial atrophy, incidence [4]: 1 out of 5
